In test [1] the target is T1, Vascular endothelial growth factor receptor 2 (Homo sapiens, UniProt P35968). Nature of the test: Inhibition of VEGFR2 after 30 mins by chemiluminescence ELISA.
Test [2] addresses T2, Vascular endothelial growth factor receptor 3 (Homo sapiens, UniProt P35916). Description: Inhibition of VEGFR3 after 30 mins by chemiluminescence ELISA. A general note: ELISA stands for enzyme-linked immunosorbent assay.
Test [3] concerns the target T3, Insulin-like growth factor 1 receptor (Homo sapiens, UniProt P08069). Description: Inhibition of IGF1R after 30 mins by chemiluminescence ELISA.
Test [4] deals with T4, Epidermal growth factor receptor (Homo sapiens, UniProt P00533). Nature of the test: Inhibition of EGFR after 30 mins by chemiluminescence ELISA.
For test [5], the target named is T3, Insulin-like growth factor 1 receptor. Nature of the test: Noncompetitive inhibition of IGF1R after 30 mins by chemiluminescence ELISA in presence of 250 uM ATP.
Test [6] concerns HT-29. Description: Antiproliferative activity against human HT-29 cells assessed as BrdU incorporation into mitotic active cells after 24 hrs by luminometry. The following applies: HT-29, 24 h. It is filed as functional, cell-based. For orientation: Incorporation of labelled thymidine or its analogues reports DNA synthesis.
Test [7] deals with MCF7. Nature of the test: Cytotoxicity against human MCF7 cells after 24 hrs by WST1 assay. It is filed as functional, cell-based. The following applies: MCF7, 24 h.
The nature of test [8]: Cytotoxicity against HEPM cells after 24 hrs by WST1 assay. It is filed as cell-based. The following applies: Homo sapiens.
The subject of test [9] is MCF7. Description: Antiproliferative activity against human MCF7 cells assessed as BrdU incorporation into mitotic active cells after 24 hrs by luminometry. It is filed as functional, cell-based. The following applies: MCF7, 24 h.
Test [10] has as its target T4, Epidermal growth factor receptor.
Description: Noncompetitive inhibition of EGFR after 30 mins by chemiluminescence ELISA in presence of 50 uM ATP
Test [11] concerns the target T2, Vascular endothelial growth factor receptor 3. Description: Noncompetitive inhibition of VEGFR3 after 30 mins by chemiluminescence ELISA in presence of 50 uM ATP.
In test [12] the target is T1, Vascular endothelial growth factor receptor 2. Nature of the test: Noncompetitive inhibition of VEGFR2 after 30 mins by chemiluminescence ELISA in presence of 250 uM ATP.
Test [13] has as its target T4, Epidermal growth factor receptor. The source holds these as a separate data set.
Description: Noncompetitive inhibition of EGFR after 30 mins by chemiluminescence ELISA in presence of 250 uM ATP
In test [14] the target is T2, Vascular endothelial growth factor receptor 3. Description: Noncompetitive inhibition of VEGFR3 after 30 mins by chemiluminescence ELISA in presence of 25 uM ATP.
Test [15] has as its system HUVEC. Description: Antiproliferative activity against HUVEC assessed as BrdU incorporation into mitotic active cells after 24 hrs by luminometry. It is filed as cell-based. The conditions noted are these: Homo sapiens.
For test [16], the target named is T3, Insulin-like growth factor 1 receptor. Description: Noncompetitive inhibition of IGF1R after 30 mins by chemiluminescence ELISA in presence of 50 uM ATP.
In test [17] the target is T2, Vascular endothelial growth factor receptor 3. Description: Noncompetitive inhibition of VEGFR3 after 30 mins by chemiluminescence ELISA in presence of 250 uM ATP.
For test [18], the system named is HT-29. Description: Cytotoxicity against human HT-29 cells after 24 hrs by WST1 assay. It is filed as functional, cell-based. The following applies: HT-29, 24 h. On the technique in general: Tetrazolium assays rely on reduction of a dye to a coloured formazan, in cell work by metabolically active cells.
The target in test [19] is T4, Epidermal growth factor receptor. This is another data set of the same source.
Description: Noncompetitive inhibition of EGFR after 30 mins by chemiluminescence ELISA in presence of 25 uM ATP
Test [20] has as its target T1, Vascular endothelial growth factor receptor 2. Nature of the test: Noncompetitive inhibition of VEGFR2 after 30 mins by chemiluminescence ELISA in presence of 50 uM ATP.
The test system of test [21] is HUVEC. Nature of the test: Cytotoxicity against HUVEC after 24 hrs by WST1 assay. It is filed as cell-based. The conditions noted are these: Homo sapiens.
Test [22] addresses T1, Vascular endothelial growth factor receptor 2. Description: Noncompetitive inhibition of VEGFR2 after 30 mins by chemiluminescence ELISA in presence of 25 uM ATP.
A short description of test [23]: Antiproliferative activity against HEPM cells assessed as BrdU incorporation into mitotic active cells after 24 hrs by luminometry. It is filed as cell-based. The following applies: Homo sapiens.
In test [24] the target is T3, Insulin-like growth factor 1 receptor. Description: Noncompetitive inhibition of IGF1R after 30 mins by chemiluminescence ELISA in presence of 25 uM ATP.

IC50 data for 18 compounds are collected here from ChEMBL document CHEMBL1157833, “Serotonin derivatives as a new class of non-ATP-competitive receptor tyrosine kinase inhibitors” (Bioorg Med Chem, 2010).

Molecules are shown by their SMILES. Where a name gives a salt, the structure may show the parent alone.

T4 sequence (P00533 whole entry): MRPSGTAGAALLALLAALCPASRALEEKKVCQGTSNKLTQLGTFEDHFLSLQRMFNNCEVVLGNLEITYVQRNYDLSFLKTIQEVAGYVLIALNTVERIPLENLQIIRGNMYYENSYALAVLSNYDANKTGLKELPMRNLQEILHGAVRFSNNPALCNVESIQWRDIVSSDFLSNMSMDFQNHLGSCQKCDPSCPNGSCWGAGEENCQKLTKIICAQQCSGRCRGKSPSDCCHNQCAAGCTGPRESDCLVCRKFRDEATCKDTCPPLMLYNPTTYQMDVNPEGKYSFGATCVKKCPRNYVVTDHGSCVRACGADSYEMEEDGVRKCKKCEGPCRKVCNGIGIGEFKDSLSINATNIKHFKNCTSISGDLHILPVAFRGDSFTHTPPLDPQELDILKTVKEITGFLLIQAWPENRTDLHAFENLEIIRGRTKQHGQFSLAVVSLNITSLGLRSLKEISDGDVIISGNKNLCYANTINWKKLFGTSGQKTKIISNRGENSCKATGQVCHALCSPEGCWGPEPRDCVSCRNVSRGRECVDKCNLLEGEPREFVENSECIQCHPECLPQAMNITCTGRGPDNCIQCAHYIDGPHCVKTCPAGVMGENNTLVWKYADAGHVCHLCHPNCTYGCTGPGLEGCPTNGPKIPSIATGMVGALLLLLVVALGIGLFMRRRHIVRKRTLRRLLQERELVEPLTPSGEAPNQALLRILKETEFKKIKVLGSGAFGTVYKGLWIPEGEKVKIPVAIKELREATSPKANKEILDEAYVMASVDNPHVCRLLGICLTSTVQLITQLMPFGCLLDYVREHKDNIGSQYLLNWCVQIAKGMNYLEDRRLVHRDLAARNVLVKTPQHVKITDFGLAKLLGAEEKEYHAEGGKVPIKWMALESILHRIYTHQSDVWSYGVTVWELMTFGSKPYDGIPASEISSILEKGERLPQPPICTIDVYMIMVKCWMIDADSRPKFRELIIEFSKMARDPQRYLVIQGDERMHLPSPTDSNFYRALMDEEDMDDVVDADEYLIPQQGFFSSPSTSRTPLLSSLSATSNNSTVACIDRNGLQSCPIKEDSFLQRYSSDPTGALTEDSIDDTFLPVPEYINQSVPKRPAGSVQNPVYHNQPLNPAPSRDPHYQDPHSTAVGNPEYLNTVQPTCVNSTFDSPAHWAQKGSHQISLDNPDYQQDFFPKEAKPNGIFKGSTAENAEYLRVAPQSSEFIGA
T3 sequence (P08069 31-736 limits assumed): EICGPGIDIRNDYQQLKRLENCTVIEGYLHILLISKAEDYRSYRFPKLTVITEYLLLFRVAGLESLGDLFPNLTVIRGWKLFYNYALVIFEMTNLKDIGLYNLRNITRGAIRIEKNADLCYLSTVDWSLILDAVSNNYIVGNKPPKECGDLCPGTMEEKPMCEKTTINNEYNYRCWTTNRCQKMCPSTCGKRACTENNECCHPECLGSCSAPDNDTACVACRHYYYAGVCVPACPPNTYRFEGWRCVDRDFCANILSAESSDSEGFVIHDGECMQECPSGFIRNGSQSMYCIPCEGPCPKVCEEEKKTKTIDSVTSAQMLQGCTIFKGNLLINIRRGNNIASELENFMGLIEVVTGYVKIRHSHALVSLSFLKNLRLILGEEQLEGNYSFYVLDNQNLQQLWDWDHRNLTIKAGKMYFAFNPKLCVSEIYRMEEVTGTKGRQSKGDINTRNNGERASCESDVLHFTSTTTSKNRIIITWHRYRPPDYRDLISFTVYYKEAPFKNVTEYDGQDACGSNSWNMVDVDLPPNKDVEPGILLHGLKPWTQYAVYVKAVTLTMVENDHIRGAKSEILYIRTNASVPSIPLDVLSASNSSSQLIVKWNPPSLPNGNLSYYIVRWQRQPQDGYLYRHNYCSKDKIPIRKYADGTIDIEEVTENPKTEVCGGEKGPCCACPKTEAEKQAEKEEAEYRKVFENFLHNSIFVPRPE
T3 sequence (P08069 741-1367 limits assumed): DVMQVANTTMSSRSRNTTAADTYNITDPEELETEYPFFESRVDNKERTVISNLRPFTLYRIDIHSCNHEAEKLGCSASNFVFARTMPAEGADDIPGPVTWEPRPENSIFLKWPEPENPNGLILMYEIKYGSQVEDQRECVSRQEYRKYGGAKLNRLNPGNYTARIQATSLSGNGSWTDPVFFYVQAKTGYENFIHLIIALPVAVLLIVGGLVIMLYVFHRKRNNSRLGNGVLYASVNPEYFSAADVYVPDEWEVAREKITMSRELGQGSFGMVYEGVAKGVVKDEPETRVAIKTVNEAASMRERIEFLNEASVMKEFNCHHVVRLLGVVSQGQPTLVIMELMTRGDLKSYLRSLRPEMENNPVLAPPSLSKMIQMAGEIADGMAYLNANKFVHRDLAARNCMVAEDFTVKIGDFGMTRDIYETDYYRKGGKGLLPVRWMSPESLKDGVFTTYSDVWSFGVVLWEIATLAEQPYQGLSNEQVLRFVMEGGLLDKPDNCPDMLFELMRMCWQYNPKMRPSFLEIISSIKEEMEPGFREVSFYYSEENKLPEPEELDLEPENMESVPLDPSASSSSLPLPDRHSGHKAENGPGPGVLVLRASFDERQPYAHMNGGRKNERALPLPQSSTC
T2 sequence (P35916 whole entry): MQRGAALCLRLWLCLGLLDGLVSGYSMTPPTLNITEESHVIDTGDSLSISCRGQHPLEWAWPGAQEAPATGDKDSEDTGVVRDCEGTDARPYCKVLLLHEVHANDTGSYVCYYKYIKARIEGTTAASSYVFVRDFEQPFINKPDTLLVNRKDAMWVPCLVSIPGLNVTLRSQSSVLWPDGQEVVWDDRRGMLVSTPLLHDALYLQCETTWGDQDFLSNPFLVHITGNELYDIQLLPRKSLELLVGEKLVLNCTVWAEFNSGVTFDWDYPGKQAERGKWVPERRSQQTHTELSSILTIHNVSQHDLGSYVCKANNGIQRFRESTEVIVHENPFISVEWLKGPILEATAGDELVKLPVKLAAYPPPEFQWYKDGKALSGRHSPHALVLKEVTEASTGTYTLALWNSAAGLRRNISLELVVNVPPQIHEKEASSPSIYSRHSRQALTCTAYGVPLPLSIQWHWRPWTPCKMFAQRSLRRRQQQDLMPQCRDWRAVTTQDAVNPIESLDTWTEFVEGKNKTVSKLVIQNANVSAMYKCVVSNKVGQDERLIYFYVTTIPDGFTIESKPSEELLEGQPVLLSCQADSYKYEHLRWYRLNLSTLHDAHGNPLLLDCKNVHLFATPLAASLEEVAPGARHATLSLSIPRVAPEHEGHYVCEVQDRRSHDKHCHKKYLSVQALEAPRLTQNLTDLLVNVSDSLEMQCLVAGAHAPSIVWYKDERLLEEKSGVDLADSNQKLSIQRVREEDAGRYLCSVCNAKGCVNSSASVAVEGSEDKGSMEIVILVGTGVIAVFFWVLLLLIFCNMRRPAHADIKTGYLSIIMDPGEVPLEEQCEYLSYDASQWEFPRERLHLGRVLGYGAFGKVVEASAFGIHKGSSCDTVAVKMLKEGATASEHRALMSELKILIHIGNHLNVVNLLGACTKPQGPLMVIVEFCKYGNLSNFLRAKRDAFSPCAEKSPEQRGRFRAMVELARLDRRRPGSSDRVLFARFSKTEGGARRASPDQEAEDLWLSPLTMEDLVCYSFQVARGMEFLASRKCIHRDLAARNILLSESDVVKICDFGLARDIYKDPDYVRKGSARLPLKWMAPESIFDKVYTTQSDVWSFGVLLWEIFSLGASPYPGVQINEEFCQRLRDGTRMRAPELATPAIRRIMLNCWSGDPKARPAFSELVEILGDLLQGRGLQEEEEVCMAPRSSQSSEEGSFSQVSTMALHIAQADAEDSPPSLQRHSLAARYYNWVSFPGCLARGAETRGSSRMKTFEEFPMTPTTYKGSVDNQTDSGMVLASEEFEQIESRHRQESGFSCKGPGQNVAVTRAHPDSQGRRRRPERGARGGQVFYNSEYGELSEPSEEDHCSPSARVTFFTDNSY

In the case of `CSc1ccc(CCCCCn2cc(CCN)c3cc(OCCc4ccc(O)cc4)ccc32)cc1`, the half-maximal inhibitory concentration (IC50) (commonly the concentration that gives 50% inhibition) in test [1] was 1220 nM; in [2], 2530 nM; in test [3], 2250 nM; in test [4] it was 1920 nM.
On to `NCCc1cn(Cc2ccc(-c3cccc(C(F)(F)F)c3)cc2)c2ccc(OCCc3ccc(O)cc3)cc12`, for which the IC50 in [5] is 1020 nM; with HT-29 [6] it was 4380 nM; in the test on MCF7 [7], 3340 nM; in test [8], 6640 nM; in the test on MCF7 [9], 3570 nM; in [10], 1120 nM. The IC50 in test [1] came out at 1560 nM; in [11], 2980 nM; in test [12], 1500 nM; in test [13] it was 1060 nM; in [14], 3010 nM; in the test on HUVEC [15], 1980 nM. Further, the IC50 in test [16] is 1060 nM; in test [17] it was 3080 nM; in test [2], 3010 nM; with HT-29 [18], 7950 nM; in test [3], 1070 nM; in test [19], 1110 nM. Also, the IC50 was 1110 nM in [4]; 1480 nM in test [20]; 6320 nM with HUVEC [21]; 1560 nM in test [22]; 2740 nM in test [23]; 1070 nM in test [24].
For `COc1ccc(-c2ccc(Cn3cc(CCN)c4cc(OCCc5ccc(O)cc5)ccc43)cc2)cc1`, the IC50 with HT-29 [6] turned out to be 4860 nM; in the test on MCF7 [7], 4930 nM; in test [8], 5700 nM; with MCF7 [9], 4790 nM; in test [1] it was 1010 nM; with HUVEC [15] it was 750 nM. Also, the IC50 in test [2] was 960 nM; in the test with HT-29 [18], 8500 nM; in test [3], 1790 nM; in [4] it was 1250 nM; in the test with HUVEC [21] it was 3450 nM; in test [23] it was 2530 nM.
On to `COCCc1ccc(O)cc1`, for which the IC50 in test [1], in test [2], in [3] and in test [4] was > 50000 nM each time.
Regarding `COc1ccc(CCCCCn2c3c(c4cc(OCCc5ccc(O)cc5)ccc42)CC(N)CC3)cc1` (stereo unspecified), the IC50 in test [1] is 940 nM; in test [2], 1810 nM; in test [3], 2860 nM; in test [4], 1370 nM.
In the same order, the values of `NC1CCc2c(c3cc(OCCc4ccc(O)cc4)ccc3n2CCCCCc2ccc(C(F)(F)F)cc2)C1` (stereo unspecified) are 2180 nM, 2270 nM, 5150 nM and 2750 nM.
The matching figures for `COc1ccc(CCOc2ccc3c(c2)c(CCN)cn3CCCCCc2ccc(SC)cc2)cc1`: 1450 nM, 1310 nM, 980 nM and 2450 nM.
As for `NCCc1cn(Cc2ccc(-c3ccccc3)cc2)c2ccc(OCCc3ccc(O)cc3)cc12`, the IC50 in test [1] turned out to be 1170 nM; in test [2], 4070 nM; in test [3], 2360 nM; in [4], 1300 nM.
The matching figures for `NCCc1c[nH]c2ccc(OCCc3ccc(O)cc3)cc12`: 2030 nM, 2640 nM, 1780 nM and 2070 nM.
In the same order, the values of `NC1CCc2c(c3cc(OCCc4ccc(O)cc4)ccc3n2CCCc2ccccc2)C1` (stereo unspecified) are 2070 nM, 2850 nM, 1330 nM and 2500 nM.
As for `NC1CCc2[nH]c3ccc(OCCc4ccc(O)cc4)cc3c2C1` (stereo unspecified), the IC50 in [1] stood at 27100 nM; in [2] it was 34600 nM; in [3], 10600 nM; in test [4], 15100 nM.
For `NCCc1cn(CCCCCc2ccccc2)c2ccc(OCCc3ccc(O)cc3)cc12`, the IC50 in test [1] was 2830 nM; in [2], 2680 nM; in test [3] it was 2960 nM; in test [4] it was 1630 nM.
As for `NC1CCc2c(c3cc(OCCc4ccc(O)cc4)ccc3n2CCCCCc2ccccc2)C1` (stereo unspecified), the IC50 in test [5] turned out to be 1220 nM; in the test with HT-29 [6], 3810 nM; in the test with MCF7 [7], 4790 nM; in [8], 7760 nM; with MCF7 [9] it was 3850 nM; in [10], 980 nM. Also, the IC50 in [1] worked out at 1060 nM; in test [11] it was 2110 nM; in test [12] it was 1040 nM; in [13], 1000 nM; in test [14] it was 2170 nM; with HUVEC [15] it was 1380 nM. Also, the IC50 in test [16] was determined as 990 nM; in test [17], 2190 nM; in test [2] it was 2170 nM; with HT-29 [18] it was 11000 nM; in test [3] it was 930 nM; in test [19], 1010 nM. The IC50 in [4] turned out to be 1010 nM; in test [20], 1090 nM; with HUVEC [21], 5040 nM; in [22] it was 1060 nM; in [23] it was 2250 nM; in [24] it was 930 nM.
Consider `COc1ccc(CCCCCn2cc(CCN)c3cc(OCCc4ccc(O)cc4)ccc32)cc1`, for which the IC50 in test [1] turned out to be 2170 nM; in test [2] it was 2050 nM; in [3], 3210 nM; in test [4], 4400 nM.
The matching figures for `CSc1ccc(CCCCCn2cc(CCNC(=O)OC(C)(C)C)c3cc(OCCc4ccc(O)cc4)ccc32)cc1`: > 50000 nM, > 50000 nM, > 50000 nM and > 50000 nM.
Turning to `CN(C)c1ccc(CCCCCn2c3c(c4cc(OCCc5ccc(O)cc5)ccc42)CC(N)CC3)cc1` (stereo unspecified), the 50% inhibitory concentration (IC50) in [2] worked out at 1660 nM; in test [4], 1910 nM.
Take `NC1CCc2c(c3cc(OCCc4ccc(O)cc4)ccc3n2CCCCCc2ccccn2)C1` (stereo unspecified): the results for the IC50 in [1] and in test [3] were 2120 nM and 2800 nM, respectively.
Take `NCCc1c[nH]c2ccc(O)cc12` [SEROTONIN HYDROCHLORIDE]: the IC50 in [1], in test [2], in test [3] and in test [4] was > 50000 nM each time.
